Source: the NIST ThermoML archive (doi:10.1021/je034157t)
± gives the expanded uncertainty stated by the source.

Conditions: Liquid

Structure (SMILES) | vapor or sublimation pressure (295.82 K) | vapor or sublimation pressure (303.17 K) | vapor or sublimation pressure (305.11 K) | vapor or sublimation pressure (313.05 K) | vapor or sublimation pressure (318.04 K) | vapor or sublimation pressure (323.24 K) | vapor or sublimation pressure (327.95 K) | vapor or sublimation pressure (293.17 K) | vapor or sublimation pressure (302.95 K) | vapor or sublimation pressure (309.84 K) | vapor or sublimation pressure (313.03 K) | vapor or sublimation pressure (319.81 K) | vapor or sublimation pressure (303.04 K) | vapor or sublimation pressure (303.05 K) | vapor or sublimation pressure (309.28 K) | vapor or sublimation pressure (313.11 K) | vapor or sublimation pressure (316.36 K) | vapor or sublimation pressure (318.1 K)
F[C@H]([C@@H](F)C(F)(F)C(F)(F)F)C(F)(F)F (relative stereo) [(R*,R*)-1,1,1,2,2,3,4,5,5,5-decafluoropentane] | 26.69 ± 0.08 kPa | 37.25 ± 0.09 kPa | 40.56 ± 0.09 kPa | 56.54 ± 0.11 kPa | 68.94 ± 0.12 kPa | 84.1 ± 0.13 kPa | 99.96 ± 0.14 kPa | – | – | – | – | – | – | – | – | – | – | –
F[C@H]([C@H](F)C(F)(F)F)C(F)(F)C(F)(F)F (relative stereo) [(R*,S*)-1,1,1,2,2,3,4,5,5,5-decafluoropentane] | – | – | – | – | – | – | – | 34.49 ± 0.1 kPa | 52.41 ± 0.11 kPa | 68.93 ± 0.13 kPa | 77.9 ± 0.15 kPa | 99.95 ± 0.17 kPa | – | – | – | – | – | –
C1CCOC1 [tetrahydrofuran] | – | – | 29.09 ± 0.08 kPa | – | – | – | – | – | – | – | – | – | 26.67 ± 0.08 kPa | 26.68 ± 0.08 kPa | 34.5 ± 0.09 kPa | 40.15 ± 0.09 kPa | 45.51 ± 0.1 kPa | 48.62 ± 0.1 kPa
